Results on 1 molecule are retold here after ChEMBL document CHEMBL1681726, “Discovery of orally available tetrahydroquinoline-based glucocorticoid receptor agonists” (Bioorg Med Chem Lett, 2011).

pEC50, pIC50, pKi: −log10 of the molar value.

Series [1] has as its target T1, Mineralocorticoid receptor (Homo sapiens, UniProt P08235).
T1 sequence (P08235 whole entry): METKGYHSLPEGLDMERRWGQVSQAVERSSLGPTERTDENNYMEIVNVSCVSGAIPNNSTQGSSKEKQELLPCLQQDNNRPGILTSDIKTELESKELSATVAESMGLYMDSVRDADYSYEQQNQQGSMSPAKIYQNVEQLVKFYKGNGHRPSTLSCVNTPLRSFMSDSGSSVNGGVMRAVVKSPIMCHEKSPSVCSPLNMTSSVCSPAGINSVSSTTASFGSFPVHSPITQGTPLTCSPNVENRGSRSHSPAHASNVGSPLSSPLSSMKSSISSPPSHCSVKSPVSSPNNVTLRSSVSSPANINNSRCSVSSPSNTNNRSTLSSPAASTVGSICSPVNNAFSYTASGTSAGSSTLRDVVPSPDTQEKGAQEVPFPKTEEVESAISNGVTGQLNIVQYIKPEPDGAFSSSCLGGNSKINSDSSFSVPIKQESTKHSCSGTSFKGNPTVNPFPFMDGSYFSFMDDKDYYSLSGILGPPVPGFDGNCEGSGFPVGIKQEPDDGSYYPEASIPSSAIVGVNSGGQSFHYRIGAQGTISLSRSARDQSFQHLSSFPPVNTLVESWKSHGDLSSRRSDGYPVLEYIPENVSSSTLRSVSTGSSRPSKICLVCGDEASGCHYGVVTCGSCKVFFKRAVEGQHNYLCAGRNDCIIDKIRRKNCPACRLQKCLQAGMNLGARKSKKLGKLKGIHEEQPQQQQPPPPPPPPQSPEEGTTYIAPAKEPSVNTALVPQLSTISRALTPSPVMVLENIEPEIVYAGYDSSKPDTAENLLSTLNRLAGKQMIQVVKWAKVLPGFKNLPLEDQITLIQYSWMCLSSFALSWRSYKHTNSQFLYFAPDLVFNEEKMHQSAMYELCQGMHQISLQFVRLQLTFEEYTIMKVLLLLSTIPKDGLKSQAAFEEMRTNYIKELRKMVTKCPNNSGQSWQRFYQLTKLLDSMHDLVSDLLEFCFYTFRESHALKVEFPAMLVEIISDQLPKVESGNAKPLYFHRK
The experiment in a line: Binding affinity to MR.

Series [2] can be described thus: Metabolic stability in human liver microsomes by HPLC-MS/MS. It is filed as ADME, Microsome. Background: Microsomes from liver hold many membrane-bound enzymes, among them those of drug oxidation.
Series [3] addresses T2, Glucocorticoid receptor (Homo sapiens, UniProt P04150).
T2 sequence (P04150 whole entry): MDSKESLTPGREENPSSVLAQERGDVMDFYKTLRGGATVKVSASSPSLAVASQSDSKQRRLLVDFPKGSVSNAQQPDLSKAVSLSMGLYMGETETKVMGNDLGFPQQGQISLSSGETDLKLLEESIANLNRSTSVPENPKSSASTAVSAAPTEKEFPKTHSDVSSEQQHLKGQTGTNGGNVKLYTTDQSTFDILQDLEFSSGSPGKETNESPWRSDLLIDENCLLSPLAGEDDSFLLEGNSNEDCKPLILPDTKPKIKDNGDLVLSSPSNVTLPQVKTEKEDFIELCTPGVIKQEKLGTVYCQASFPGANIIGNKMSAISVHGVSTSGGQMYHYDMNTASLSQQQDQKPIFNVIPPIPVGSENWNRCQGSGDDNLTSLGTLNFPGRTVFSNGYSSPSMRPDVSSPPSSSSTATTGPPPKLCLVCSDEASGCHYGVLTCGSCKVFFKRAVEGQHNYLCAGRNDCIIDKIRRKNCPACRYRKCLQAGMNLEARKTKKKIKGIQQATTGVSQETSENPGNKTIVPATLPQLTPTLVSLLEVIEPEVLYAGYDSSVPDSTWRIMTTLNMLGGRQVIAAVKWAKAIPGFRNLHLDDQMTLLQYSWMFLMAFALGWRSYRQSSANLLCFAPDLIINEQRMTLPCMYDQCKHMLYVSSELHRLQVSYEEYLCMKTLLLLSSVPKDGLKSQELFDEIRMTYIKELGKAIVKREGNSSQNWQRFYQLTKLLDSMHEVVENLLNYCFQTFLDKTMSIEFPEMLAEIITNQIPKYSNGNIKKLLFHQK
The experiment in a line: Agonist activity at GR expressed in IL-1beta- and TNFalpha-stimulated HepG2 cells assessed as inhibition of NFKB- or AP-1 mediated E-selectin transcription by luciferase reporter gene assay relative to Dexamethasone. It is filed as functional, cell-based. A general note: A reporter such as luciferase makes a cellular process visible.

A short description of series [4]: AUC in Sprague-Dawley rat at 30 mg/kg, po. It is filed as ADME, organism-based. Also noted: dose 30 mg/kg, route oral. To be noted: plasma.
A short description of series [5]: Metabolic stability in CD-1 […] liver microsomes by HPLC-MS/MS. The series is classed as ADME, Microsome. To be noted: CD-1, liver microsomes.
Series [6] concerns the target T2, Glucocorticoid receptor. The experiment in a line: Agonist activity at human GR expressed in NHDF cells assessed as inhibition of IL-6 production by ELISA relative to Dexamethasone. It is filed as functional, cell-based. (In general: ELISA stands for enzyme-linked immunosorbent assay.)
The target of series [7] is T2, Glucocorticoid receptor. The experiment in a line: Agonist activity at GR expressed in african green monkey CV1 cells transfected with luciferase gene linked to MMTV promoter assessed as induction of luciferase transactivation activity relative to Dexamethasone. It is filed as functional, cell-based, CV-1.

In series [1], `C[C@H]1c2c(cc(F)c(-c3cccc4cc[nH]c34)c2F)NC(C)(C)[C@@H]1O` (racemic) had a negative logarithm of the Ki (pKi) of 5.82. Besides, the half-life in series [2] amounted to 48 min; in series [5] it was 30 min. Also, the negative logarithm of the IC50 (pIC50) was 8.82 at Glucocorticoid receptor [3] and 7.96 on Glucocorticoid receptor [6]. The area under the curve (AUC) in series [4] was determined as 35000 ng·h/mL. Further, the negative logarithm of the EC50 (pEC50) on Glucocorticoid receptor [7] was 9.22.

As usually defined, the pKi is the Ki on a negative log10 scale, so that one unit is a factor of ten. Usually half-life stands for how long it takes for the measured level to halve. For orientation: pIC50 means −log10 of the IC50, conventionally taken in molar units. As a reminder, the AUC is concentration integrated over time. What is called pEC50 is −log10 of the EC50, conventionally taken in molar units.
